This note sets out measurements from patent publication US20230145835A1, “Modulators of Alpha-4-beta-7 Integrin and MAdCAM” (48HD Biopharma Inc., priority 2021, published 2023).

Numbered stars: 1 amine (or outer) side, 2 acyl side, 3 side chain; on linkers, the order of the positions; unused ones are H or OH. Bridge positions count the residues as written; N and C are the ends. Square brackets hold non-standard residues; d marks the D form. Peptide text beside a SMILES is read from it. I, II: the chains in the order shown. ξ: configuration not given here. CO(CH2CH2O)5CH2CH2CO = O=C(CCOCCOCCOCCOCCOCCC(=O)[*:2])[*:1]; X3 = O=C(/C=N/OCCCCCCOc1cc(C[*:2])cc(C[*:3])c1)[*:1]; X9 = NC(=O)[C@H](CS[*:1])CC(=O)[C@H](CCC(=O)O)N[*:2]; X1 = O=C(C=NOCCCCCCOc1cc(C[*:2])cc(C[*:3])c1)[*:1]; X5 = O=C(CCCCCCOc1cc(C[*:2])cc(C[*:3])c1)[*:1]; X7 = O=C(/C=N\OCc1cc(C[*:2])cc(C[*:3])c1)[*:1]; hIle(4ξ) = CCC(C)C[C@H](N)C(=O)O; tBuAla = CC(C)(C)C[C@H](N)C(=O)O; Thr(3ξ) = CC(O)[C@H](N)C(=O)O; hSer = N[C@@H](CCO)C(=O)O; Nle = CCCC[C@H](N)C(=O)O

One assay deals with T1, rh-integrin α4β7/LPAM-1 (Homo sapiens, UniProt P13612+P26010).
T1 sequence (P13612 34-977 limits assumed): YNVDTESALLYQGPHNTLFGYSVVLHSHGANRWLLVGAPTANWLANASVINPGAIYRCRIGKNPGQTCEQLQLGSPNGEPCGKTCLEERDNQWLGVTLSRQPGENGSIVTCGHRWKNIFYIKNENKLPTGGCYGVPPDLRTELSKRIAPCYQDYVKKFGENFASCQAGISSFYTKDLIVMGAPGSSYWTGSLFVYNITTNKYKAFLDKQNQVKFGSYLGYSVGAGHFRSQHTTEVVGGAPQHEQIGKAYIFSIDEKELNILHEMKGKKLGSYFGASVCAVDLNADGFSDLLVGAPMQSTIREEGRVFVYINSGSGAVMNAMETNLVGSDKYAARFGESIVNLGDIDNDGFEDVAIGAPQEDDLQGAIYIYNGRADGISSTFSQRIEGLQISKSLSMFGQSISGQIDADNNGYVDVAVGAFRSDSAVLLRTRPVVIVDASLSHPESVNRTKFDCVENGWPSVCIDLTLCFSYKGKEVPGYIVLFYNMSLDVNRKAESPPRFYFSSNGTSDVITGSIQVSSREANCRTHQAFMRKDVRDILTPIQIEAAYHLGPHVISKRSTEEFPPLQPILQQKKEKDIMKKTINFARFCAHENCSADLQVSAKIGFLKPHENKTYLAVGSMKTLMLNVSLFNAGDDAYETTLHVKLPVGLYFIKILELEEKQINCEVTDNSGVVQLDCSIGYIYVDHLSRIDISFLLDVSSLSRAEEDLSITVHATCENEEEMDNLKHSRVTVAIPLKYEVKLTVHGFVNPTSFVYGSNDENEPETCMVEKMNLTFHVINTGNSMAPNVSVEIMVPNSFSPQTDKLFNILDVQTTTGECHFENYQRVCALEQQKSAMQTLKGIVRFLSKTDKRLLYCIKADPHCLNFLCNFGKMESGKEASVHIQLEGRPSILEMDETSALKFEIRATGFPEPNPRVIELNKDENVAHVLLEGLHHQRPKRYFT
T1 sequence (P26010 20-723 limits assumed): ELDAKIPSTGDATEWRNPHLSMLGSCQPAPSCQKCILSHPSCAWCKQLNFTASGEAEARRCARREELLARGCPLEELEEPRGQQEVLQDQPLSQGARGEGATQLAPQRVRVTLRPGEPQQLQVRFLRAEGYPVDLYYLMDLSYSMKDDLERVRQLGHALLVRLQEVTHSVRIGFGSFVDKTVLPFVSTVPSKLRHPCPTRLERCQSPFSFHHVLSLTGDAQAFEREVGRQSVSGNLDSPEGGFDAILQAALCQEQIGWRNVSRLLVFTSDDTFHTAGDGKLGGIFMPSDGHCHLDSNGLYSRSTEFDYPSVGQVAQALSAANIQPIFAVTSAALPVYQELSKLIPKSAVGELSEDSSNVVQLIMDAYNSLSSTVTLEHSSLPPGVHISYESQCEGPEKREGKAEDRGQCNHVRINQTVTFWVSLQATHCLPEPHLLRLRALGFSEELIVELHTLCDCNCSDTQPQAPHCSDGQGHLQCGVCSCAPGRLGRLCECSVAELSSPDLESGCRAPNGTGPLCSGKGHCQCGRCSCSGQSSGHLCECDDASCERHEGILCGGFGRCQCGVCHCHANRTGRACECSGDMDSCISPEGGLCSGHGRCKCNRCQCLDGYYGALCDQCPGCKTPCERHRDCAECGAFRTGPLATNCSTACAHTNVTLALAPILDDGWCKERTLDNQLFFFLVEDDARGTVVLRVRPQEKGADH
The assay is described as follows: α4β7-MadCAM Competition ELISA (Example 4). Format: binding. The settings on record: IC50, Table 3 Representative compounds; inhibition of MAdCAM binding to coated α4β7. Here is the method:
After washing with wash buffer, 200 μL assay buffer was added to each well and incubated for one hour at 28° C. After another wash with wash buffer, 100 μL of a MAdCAM and peptide mixture in assay buffer was added to each well and incubated for one hour at 28° C., followed by washing with wash buffer.
For orientation: In an ELISA, binding on a coated surface is turned into a signal by an enzyme label.
Broadly, the IC50 is the concentration at which inhibition is half-maximal. The compound `CC[C@H](C)[C@@H]1NC(=O)[C@H]([C@@H](C)O)NC(=O)[C@H](CC(=O)O)NC(=O)[C@H](CO)NC(=O)[C@H](CCCNC(=N)N)NC(=O)[C@@H]2CSCc3cc(cc(c3)CSC[C@@H](C(N)=O)NC1=O)CO/N=C\C(=O)N[C@@H](C)C(=O)N2` [compound 94, TSL1- SACRSDTLC] (ACRSDTIC-NH2; linker N-2-8 via X7) had an IC50 of 111 µM.

Staying with this assay, now noted: Table 3 Representative compounds; inhibition of MAdCAM binding to coated α4β7; read-out: IC50.
Take `CC(C)C[C@@H]1NC(=O)[C@@H]2CCCN2C(=O)[C@@H]2CSCc3cc(cc(c3)OCCCCCCO/N=C/C(=O)N[C@@H](CCCCN)C(=O)N2)CSC[C@@H](C(N)=O)NC(=O)[C@H](CCC(=O)O)NC(=O)[C@H](Cc2ccc(O)cc2)NC(=O)[C@@H]2CCCN2C(=O)[C@H]([C@@H](C)O)NC(=O)[C@H](C)NC1=O` [compound 108, TSL6- SKCPLATPYEC] (KCPLATPYEC-NH2; linker N-2-10 via X3): the IC50 is above 500 µM. Turning to `CSCC[C@@H]1NC(=O)[C@@H]2CCCN2C(=O)[C@@H]2CSCc3cc(cc(c3)OCCCCCCO/N=C/C(=O)N[C@@H](C)C(=O)N2)CSC[C@@H](C(N)=O)NC(=O)[C@H](CCC(=O)O)NC(=O)CNC(=O)[C@H](Cc2c[nH]c3ccccc23)NC(=O)[C@H](C(C)C)NC(=O)[C@H](CC(=O)O)NC1=O` [compound 75, TSL6- SACPMDVWGEC] (ACPMDVWGEC-NH2; linker N-2-10 via X3), the IC50 is 31.3 µM. On to `CC(C)C[C@@H]1NC(=O)[C@@H]2CCCN2C(=O)[C@@H](NC(=O)[C@H](CCCCN)NC(=O)[C@@H](N)CO)CSSC[C@@H](C(N)=O)CC(=O)[C@H](CCC(=O)O)NC(=O)[C@H](Cc2ccc(O)cc2)NC(=O)[C@@H]2CCCN2C(=O)[C@H](C(C)O)NC(=O)[C@H](CC(=O)O)NC1=O` (some centres unmarked) [compound 25] (H-SKCPLD[Thr(3ξ)]PY; linker 3-C via X9), for which the half-maximal inhibitory concentration (IC50) came out at 0.552 µM. On to `CC[C@H](C)[C@@H]1NC(=O)[C@H](CC(=O)O)NC(=O)[C@H](CCSC)NC(=O)[C@@H]2CCCN2C(=O)[C@@H]2CSCc3cc(cc(c3)OCCCCCCO/N=C/C(=O)N[C@@H](CCC(N)=O)C(=O)N2)CSC[C@@H](C(N)=O)NC(=O)[C@H]([C@@H](C)O)NC(=O)[C@@H]2CCCN2C1=O` [compound 40, TSL6- SQCPMDIPTC] (QCPMDIPTC-NH2; linker N-2-9 via X3), for which the IC50 turned out to be 1.27 µM. Turning to `CCC(C)C[C@@H]1NC(=O)[C@H](CC(=O)O)NC(=O)[C@H](CC(C)C)NC(=O)[C@H](CCCCN)NC(=O)[C@@H]2CSCc3cc(cc(c3)OCCCCCCO/N=C/C(=O)N[C@@H](Cc3c[nH]cn3)C(=O)N2)CSC[C@@H](C(N)=O)NC(=O)[C@H](CC(C)C)NC(=O)[C@H](Cc2c[nH]c3ccccc23)NC1=O` (some centres unmarked) [compound 107, TSL6- SHCKLDIWVC] (HCKLD[hIle(4ξ)]WLC-NH2; linker N-2-9 via X3), the IC50 was above 500 µM. Same read-out and setting: the value for `CC(C)C[C@@H]1NC(=O)[C@@H]2CCCN2C(=O)[C@@H]2CSCc3cc(cc(c3)OCCCCCCO/N=C/C(=O)N[C@@H](CCCCN)C(=O)N2)CSC[C@@H](C(N)=O)NC(=O)[C@H](C)NC(=O)[C@H](Cc2ccc(O)cc2)NC(=O)[C@@H]2CCCN2C(=O)[C@H]([C@@H](C)O)NC(=O)[C@H](CC(=O)O)NC1=O` [compound 24, TSL6- SKCPLDTPYAC] (KCPLDTPYAC-NH2; linker N-2-10 via X3) was 0.517 µM; that for `CC[C@H](C)[C@@H]1NC(=O)[C@H](CC(=O)O)NC(=O)[C@H](CCSC)NC(=O)[C@@H]2CCCN2C(=O)[C@@H](NC(=O)[C@H](CCCNC(=N)N)NC(=O)[C@H](CO)NC(C)=O)CSSC[C@@H](C(N)=O)NC(=O)[C@H](CCC(=O)O)NC(=O)CNC(=O)[C@H](C)NC1=O` [compound 36] (Ac-SRCPMDIAGEC-NH2; disulfide 3-11) was 0.932 µM.

Still in this assay, the particulars now being: competition ELISA, 4 μg/mL α4β7 coated, MAdCAM and peptide mixture, 28° C.; read-out: IC50.
As to `CC[C@H](C)[C@@H]1NC(=O)[C@H](CC(=O)O)NC(=O)[C@H](CCSC)NC(=O)[C@@H]2CCCN2C(=O)[C@@H](NC(=O)[C@H](CCCNC(=N)N)NC(=O)[C@H](CO)NC(C)=O)CSSC[C@@H](C(=O)N[C@@H](CCCCNC(=O)CCOCCOCCOCCOCCOCCC(=O)NCCCC[C@H](NC(=O)[C@@H]2CSSC[C@H](NC(=O)[C@H](CCCNC(=N)N)NC(=O)[C@H](CO)NC(C)=O)C(=O)N3CCC[C@H]3C(=O)N[C@@H](CCSC)C(=O)N[C@@H](CC(=O)O)C(=O)N[C@@H]([C@@H](C)CC)C(=O)N[C@@H](C)C(=O)NCC(=O)N[C@@H](CCC(=O)O)C(=O)N2)C(N)=O)C(N)=O)NC(=O)[C@H](CCC(=O)O)NC(=O)CNC(=O)[C@H](C)NC1=O` [SEQ ID NO: 109] (I: Ac-SRCPMDIAGECK-NH2 / II: Ac-SRCPMDIAGECK-NH2; disulfide I:3-I:11, II:3-II:11; linker I:12-II:12 via CO(CH2CH2O)5CH2CH2CO), the IC50 is 1.73 µM. With `CSCC[C@@H]1NC(=O)[C@@H]2CCCN2C(=O)[C@@H]2CSCc3cc(cc(c3)OCCCCCCON=CC(=O)N[C@@H](C)C(=O)N2)CSC[C@@H](C(=O)O)NC(=O)[C@H](CCC(=O)O)NC(=O)CNC(=O)[C@H](C)NC(=O)[C@H](C(C)C)NC(=O)[C@H](CC(=O)O)NC1=O` [SEQ ID NO: 101] (ACPMDVAGEC-OH; linker N-2-10 via X1), the IC50 was 5.98 µM.

Consider `COCC[C@@H]1NC(=O)[C@@H]2CCCN2C(=O)[C@@H]2CSCc3cc(cc(c3)OCCCCCCC(=O)NCC(=O)N[C@@H](CCC(N)=O)C(=O)N2)CSC[C@@H](C(=O)O)NC(=O)[C@H](CCC(=O)O)NC(=O)[C@H](CCC(N)=O)NC(=O)[C@@H]2CCCN2C(=O)[C@H](CC(C)(C)C)NC(=O)[C@H](CC(=O)O)NC1=O` [SEQ ID NO: 89] (GQCP[hSer](Me)D[tBuAla]PQEC-OH; linker N-3-11 via X5; C-terminus assumed), for which the IC50 is 55.9 µM. For `CC(C)C[C@@H]1NC(=O)[C@H](Cc2ccccc2)NC(=O)[C@@H]2CSCc3cc(cc(c3)OCCCCCCON=CC(=O)N[C@@H]([C@@H](C)O)C(=O)N2)CSC[C@@H](C(=O)O)NC(=O)[C@H](CC(N)=O)NC(=O)[C@H](CCCCN)NC(=O)[C@H](C(C)C)NC(=O)[C@H](CC(=O)O)NC1=O` [SEQ ID NO: 10] (TCFLDVKNC-OH; linker N-2-9 via X1), the IC50 was 311 µM. Same read-out and setting: the value for `CC[C@H](C)[C@@H]1NC(=O)[C@H](C)NC(=O)[C@H](CCSC)NC(=O)[C@@H]2CCCN2C(=O)[C@@H]2CSCc3cc(cc(c3)OCCCCCCON=CC(=O)N[C@@H](CCC(N)=O)C(=O)N2)CSC[C@@H](C(=O)O)NC(=O)[C@H]([C@@H](C)O)NC(=O)[C@@H]2CCCN2C1=O` [SEQ ID NO: 49] (QCPMAIPTC-OH; linker N-2-9 via X1) was above 500 µM; that for `CCCC[C@@H]1NC(=O)[C@H](CO)NC(=O)[C@@H]2CSSC[C@@H](C(=O)N[C@@H](Cc3c[nH]c4ccccc34)C(=O)N[C@@H](CCC(N)=O)C(N)=O)NC(=O)[C@H](C(C)C)NC(=O)[C@H](CC(=O)O)NC(=O)[C@H](CC(C)C)NC(=O)[C@H](CO)NC(=O)[C@H](CCCNC(=N)N)NC(=O)[C@H](CSCC(=O)N[C@@H](CCCNC(=N)N)C(=O)N2)NC(=O)[C@H]([C@@H](C)CC)NC(=O)[C@H](CC(=O)O)NC1=O` [SEQ ID NO: 94] ({CH2CO}-RCS[Nle]DICRSLDVCWQ-NH2; disulfide 2-13; thioether N-7) was 19.7 µM.
